Test results from patent US20100196586A1, “FOODSTUFF COMPOSITION TO IMPROVE DIGESTIBILITY OF FOODSTUFF LIPIDS” (ISL-INNOVATION SANTE LIPIDES, priority 2007, published 2010).

T1: colipase dependent pancreatic lipase (Sus scrofa, UniProt P00591)
T1 sequence (P00591 1-450): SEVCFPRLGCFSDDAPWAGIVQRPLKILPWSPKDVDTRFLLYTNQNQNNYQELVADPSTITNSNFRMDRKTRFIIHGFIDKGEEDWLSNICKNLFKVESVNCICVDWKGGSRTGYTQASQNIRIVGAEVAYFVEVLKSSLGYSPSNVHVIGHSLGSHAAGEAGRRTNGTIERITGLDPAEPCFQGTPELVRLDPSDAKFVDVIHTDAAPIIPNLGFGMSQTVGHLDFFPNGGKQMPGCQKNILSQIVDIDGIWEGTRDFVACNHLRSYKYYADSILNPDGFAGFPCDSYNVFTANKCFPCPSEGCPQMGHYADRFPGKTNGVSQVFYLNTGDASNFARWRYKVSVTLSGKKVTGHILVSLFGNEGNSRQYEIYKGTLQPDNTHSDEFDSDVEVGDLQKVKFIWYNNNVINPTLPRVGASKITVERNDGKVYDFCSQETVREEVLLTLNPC
T1 sequence (P02703 23-112 partner): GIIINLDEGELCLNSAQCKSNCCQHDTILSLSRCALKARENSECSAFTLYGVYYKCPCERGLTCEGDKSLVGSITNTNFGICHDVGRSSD


Key:
gastric lipase = experiment: Gastric lipolysis of triolein emulsions stabilized by phospholipids, with purified gastric lipases or gastric juices; type: biochemical, human
Description: (§1) The compounds have been tested in vitro in different experimental conditions for their ability to promote the action of three major lipolytic enzymes of the digestive tract, i.e., gastric lipase, colipase-dependent pancreatic lipase, bile salt stimulated lipase (BSSL), and their isoforms and variants.
(§2) Different lipidic emulsions have been prepared by sonication of a mixture of triolein (TO) (98.7%), cholesterol (0.5%) and phospholipids (0.8%).
(§3) The lipolysis tests have been carried out in vitro in conditions that mimic the physiology of the human digestive tract, either healthy or with pancreatic insufficiency (PI).
Gastric lipolysis in the presence of gastric lipase has been carried out with purified lipases or gastric juices from different subjects at pH 5.40, at 37° C. for 60 minutes with a gastric lipase (U/mL)/lipids (micromoles of TO) ratio of 2.
(§4) Lipolysis by the three main digestive tract lipases has also been tested in more complex conditions, i.e. in the presence of lipidic emulsions with a mixture of proteins plus lactose added in proportions that are found in normal or medically assisted nutrition.

[1] = system: bile salt stimulated lipase (BSSL); experiment: Intestinal lipolysis of triolein emulsions by bile salt stimulated lipase; type: biochemical, human
Description: as §1, §2, §3
[…] Several variants of BSSL have been tested, numbered 1 to 8.
as §4

[2] = molecular target: T1, colipase dependent pancreatic lipase; experiment: Intestinal lipolysis of triolein emulsions by colipase dependent pancreatic lipase or pancreatine; type: biochemical, pig; conditions: for yield of pancreatic lipolysis (percentage of hydrolysis) compared with PC P/O emulsion: normal physiological conditions, two forms of pig pancreatic lipase (pure lipase or powder of pancreas), FIG. 3
Description: as §1, §2, §3
Intestinal lipolysis in the presence of colipase dependent pancreatic lipase (lipase/colipase 1/1 molar ratio) or of pig pancreatic extract (pancreatine) was conducted at pH […] at 37° C. for 15 minutes, with a pancreatic lipase (U/mL)/micromoles of TO ratio of 20, and in the presence of pig bile in sufficient quantity for a bile salt concentration of 2 or 8 mM.
as §4

[3] = cited from earlier work
[4] = gastric juices of subject, pH 5.40, 37° C., 60 minutes, FIG. 1
[5] = conditions of pancreatic insufficiency, mixture of pure bile salts, FIG. 6
[6] = gastric juices of different subjects, irrespective of the origin of gastric juice, FIG. 2

| Molecule | yield of gastric lipolysis (percentage of hydrolysis) compared with the control CT emulsion (gastric lipase; [4]) | yield of lipolysis by BSSL (percentage of hydrolysis) compared with PC P/O emulsion [1, 5] | yield of lipolysis by BSSL (percentage of hydrolysis) compared with PC P/O emulsion ([1]; normal conditions, FIG. 4) | yield of gastric lipolysis (percentage of hydrolysis) compared with the control CT emulsion (gastric lipase; [6]) | yield of pancreatic lipolysis (percentage of hydrolysis) compared with PC P/O emulsion [2] | also measured |
| --- | --- | --- | --- | --- | --- | --- |
| CCCCCCCC/C=C\CCCCCCCC(=O)OC[C@@H](O)COP(=O)(O)O [LPAo, oleyl lysophosphatidic acid] | significantly higher | – | – | – | – | – |
| DHA phosphatidylethanolamine [PE DHA] | – | significantly higher | significantly higher | – | – | – |
| egg-derived lysophosphatidylcholine [LPCO] | significantly higher | significantly higher | significantly higher | significantly higher | – | – |
| lysophosphatidylinositol [LPI] | significantly higher | significantly higher | significantly higher | significantly higher | significantly higher | yield of pancreatic lipolysis (percentage of hydrolysis) compared with PC P/O ([2]; conditions of pancreatic insufficiency, purified lipase, intestinal pH values typical of pancreatic insufficiency, FIG. 5): significantly higher; activator effect in the presence of a mixture of protein plus lactose ([2]; pancreatic lipase, complex environment compared with simple emulsion): identical or even maximized; effect of the dose of LPI on the yield of gastric lipolysis of the LHO emulsion (gastric lipase; LPI 0.1, 0.4 and 0.8% of total lipids, total phospholipids 0.8% of total lipids, gastric juices of subjects, FIG. 12): increase with increasing concentrations of LPI; yield of gastric lipolysis (percentage of hydrolysis) compared with PC P/O and complex PC P/O (gastric lipase; different human gastric juices, simple emulsions and complex emulsions (lactose and milk proteins), FIG. 7): significantly higher; activator effect in the presence of a mixture of protein plus lactose (gastric lipase; gastric lipase, complex environment compared with simple emulsion): identical or even maximized; quantity at which the activator effect seems optimal (gastric lipase; gastric lipolysis of LHO/LPI emulsions, dose dependent): 0.8 % of total lipids; effect on gastric lipase degraded at its N-terminal end (yield of gastric lipolysis vs CT and/or PC P/O) (gastric lipase; purified gastric lipases or juices of different subjects with different degrees of N-terminal degradation, FIG. 10): reactivates degraded gastric lipase; activator effect in the presence of a mixture of protein plus lactose ([1]; BSSL, complex environment compared with simple emulsion): identical or even maximized; activator effect on different variants of BSSL (1 to 8) compared with PC P/O ([1]; normal conditions (A) or conditions of pancreatic insufficiency (B), efficacy varies with type of BSSL, FIG. 11): confirmed; yield of lipolysis by BSSL (percentage of hydrolysis) compared with PC P/O and complex PC P/O ([1]; purified human BSSL, pH 7.00, bile salts 8 mM (normal) or 2 mM (pancreatic insufficiency), with or without lactose and milk proteins, FIG. 9): significantly higher |
| lysophosphatidylserine [LPS] | – | – | – | – | significantly higher | – |
| recombinant gastric lipase: recombinant dog gastric lipase (Merispase, Meristem) (protein, UniProt P80035 20-398, looked up) Gastric triacylglycerol lipase: LFGKLHPTNPEVTMNISQMITYWGYPAEEYEVVTEDGYILGIDRIPYGRKNSENIGRRPVAFLQHGLLASATNWISNLPNNSLAFILADAGYDVWLGNSRGNTWARRNLYYSPDSVEFWAFSFDEMAKYDLPATIDFILKKTGQDKLHYVGHSQGTTIGFIAFSTNPKLAKRIKTFYALAPVATVKYTETLLNKLMLVPSFLFKLIFGNKIFYPHHFFDQFLATEVCSRETVDLLCSNALFIICGFDTMNLNMSRLDVYLSHNPAGTSVQNVLHWSQAVKSGKFQAFDWGSPVQNMMHYHQSMPPYYNLTDMHVPIAVWNGGNDLLADPHDVDLLLSKLPNLIYHRKIPPYNHLDFIWAMDAPQAVYNEIVSMMGTDNK | – | – | – | – | – | increase of the absorption level of lipids ([3]; administered together with pancreatic extracts, in 7 of the 11 patients studied): 17%; rate of absorption of lipids ([3]; subjects suffering from cystic fibrosis, alone, 600 mg/day, 28% without supplement): 50% |
